In the supplement of paper PMC10331698:
± gives the standard deviation of the averaged measurements.

Legend:
Assay in all cases: level (log10 ratio to DMSO vehicle control); higher = higher biomarker level / cell amount than vehicle control
[1] = compound: C=C(C)C(=O)OCCC(F)(F)C(F)(F)C(F)(F)C(F)(F)C(F)(F)C(F)(F)C(F)(F)C(F)(F)F [8:2 Fluorotelomer methacrylate] (in DMSO)
Experimental: (§1)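 BioMAP Diversity Plus panel of 12 human primary cell co-culture systems (3C, 4H, LPS, SAg, BT, BF4T, BE3C, CASM3C, HDF3CGF, KF3CT, MyoF, Mphg). Compounds were added 1 h before stimulation and left for 24 h (MyoF 48 h; BT 72 h for soluble read-outs or 6 d for IgG). Biomarkers were read by ELISA, cytotoxicity by SRB, PBMC viability and proliferation by Alamar Blue. Each well value was divided by the mean of 8 DMSO control wells on the same plate and log10 transformed; duplicate blinded samples were tested at 4 concentrations.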

[2] = compound: O=C(O)C(F)(F)C(F)(F)C(F)(F)C(F)(F)C(F)(F)C(F)(F)C(F)(F)C(F)(F)F [Perfluorononanoic acid] (in DMSO)
Experimental: as §1

[3] = compound: O=C(O)C(F)(F)OC(F)(F)C(F)(F)OC(F)(F)C(F)(F)OC(F)(F)C(F)(F)C(F)(F)C(F)(F)F [Perfluoro-3,6,9-trioxatridecanoic acid] (in DMSO); settings: 6700 nM
Experimental: as §1

[4] = compound: OCC(F)(F)C(F)(F)C(F)(F)C(F)(F)C(F)(F)C(F)(F)CO [1H,1H,8H,8H-Perfluorooctane-1,8-diol] (in DMSO)
Experimental: as §1

[5] = compound: NS(=O)(=O)C(F)(F)C(F)(F)C(F)(F)C(F)(F)C(F)(F)C(F)(F)C(F)(F)C(F)(F)F [Perfluorooctanesulfonamide] (in DMSO)
Experimental: as §1

[6] = compound: O=C(O)C(F)(F)C(F)(F)C(F)(F)OC(F)(F)F [Perfluoro(4-methoxybutanoic) acid] (in DMSO)
Experimental: as §1

[7] = compound: OCC(F)(F)C(F)(F)C(F)(F)C(F)F [1H,1H,5H-Perfluoropentanol] (in DMSO)
Experimental: as §1

[8] = compound: O=C(O)C(F)(OC(F)(F)C(F)(OC(F)(F)C(F)(OC(F)(F)C(F)(F)C(F)(F)F)C(F)(F)F)C(F)(F)F)C(F)(F)F [Perfluoro-(2,5,8-trimethyl-3,6,9-trioxadodecanoic)acid] (in DMSO)
Experimental: as §1

| Test System | level (log10) ([1]; 6700 nM) | level (log10) ([1]; 20000 nM) | level (log10) ([2]; 6700 nM) | level (log10) ([2]; 20000 nM) | level (log10) [3] | level (log10) ([4]; 6700 nM) | level (log10) ([4]; 20000 nM) | level (log10) ([4]; 60000 nM) | level (log10) ([5]; 6700 nM) | level (log10) ([5]; 20000 nM) | level (log10) ([6]; 6700 nM) | level (log10) ([6]; 20000 nM) | level (log10) ([6]; 60000 nM) | level (log10) ([7]; 6700 nM) | level (log10) ([7]; 20000 nM) | level (log10) ([7]; 60000 nM) | level (log10) ([8]; 1100 nM) | level (log10) ([8]; 3300 nM) | level (log10) ([8]; 10000 nM) |
| --- | --- | --- | --- | --- | --- | --- | --- | --- | --- | --- | --- | --- | --- | --- | --- | --- | --- | --- | --- |
| CASM3C:CD87/uPAR | -0.006 ± 0.05 | -0.022 ± 0.033 | -0.02 ± 0.0071 | 0.023 | 0.0205 ± 0.018 | 0.0025 ± 0.0021 | -0.0325 ± 0.0092 | -0.036 ± 0.038 | -0.007 ± 0.031 | -0.0055 ± 0.026 | -0.0135 ± 0.04 | -0.0095 ± 0.0092 | -0.0255 ± 0.016 | 0.0065 ± 0.021 | 0.025 ± 0.017 | 0.005 ± 0.021 | 0.0175 ± 0.022 | 0.0015 ± 0.018 | 0.0265 ± 0.0035 |
| CASM3C:CD106/VCAM-1 | -0.006 ± 0.0014 | -0.0145 ± 0.036 | 0.013 ± 0.0042 | -0.0245 ± 0.1 | -0.035 ± 0.024 | 0.0055 ± 0.022 | 0.02 ± 0.0028 | 0.05 ± 0.0085 | -0.0185 ± 0.0021 | -0.0405 ± 0.037 | -0.0045 ± 0.057 | -0.0015 ± 0.042 | -0.008 ± 0.035 | 0.0335 ± 0.023 | 0.027 ± 0.065 | 0.0395 ± 0.013 | 0.0125 ± 0.012 | -0.003 ± 0.031 | -0.0025 ± 0.005 |
| CASM3C:CD141/Thrombomodulin | -0.0195 ± 0.042 | 0.041 ± 0.082 | 0.0145 ± 0.0092 | 0.0335 ± 0.016 | -0.0345 ± 0.0064 | -0.018 ± 0.0071 | -0.02 ± 0.014 | -0.0005 ± 0.026 | 0 ± 0.0085 | 0.0505 ± 0.0078 | 0.001 ± 0.035 | 0.007 ± 0.035 | -0.011 ± 0.044 | 0.046 | 0.018 ± 0.017 | 0.032 ± 0.023 | 0.0045 ± 0.036 | 0.018 ± 0.047 | 0.014 ± 0.027 |
| CASM3C:CD142/Tissue Factor | -0.023 ± 0.018 | -0.0195 ± 0.057 | -0.093 ± 0.064 | -0.115 ± 0.14 | 0.013 ± 0.02 | 0 ± 0.014 | 0 ± 0.023 | 0.012 ± 0.041 | 0.021 ± 0.011 | 0.082 ± 0.04 | 0.0005 ± 0.018 | -0.0175 ± 0.011 | -0.051 ± 0.018 | -0.0605 ± 0.044 | -0.0695 ± 0.035 | -0.0195 ± 0.094 | 0.0095 ± 0.018 | 0.0085 ± 0.011 | 0.0025 ± 0.015 |
| CASM3C:CXCL8/IL-8 | -0.011 ± 0.0057 | -0.0055 ± 0.028 | 0.0075 ± 0.013 | 0.031 ± 0.033 | 0.002 ± 0.0085 | -0.007 ± 0.027 | -0.0135 ± 0.022 | 0.007 ± 0.011 | -0.0055 ± 0.0035 | -0.0125 ± 0.0035 | 0.002 ± 0.0099 | -0.0065 ± 0.013 | 0.0165 ± 0.011 | -0.0025 ± 0.021 | 0.0065 ± 0.047 | 0.015 ± 0.059 | -0.0025 ± 0.021 | -0.015 ± 0.025 | 0.0105 ± 0.0035 |
| CASM3C:CXCL9/MIG | -0.017 ± 0.011 | 0.018 ± 0.042 | 0.014 ± 0.028 | 0.005 ± 0.057 | -0.01 ± 0.0014 | 0.0035 ± 0.012 | 0.016 ± 0.0028 | 0.0235 ± 0.021 | -0.0005 ± 0.011 | -0.0305 ± 0.022 | -0.0025 ± 0.016 | -0.0105 ± 0.0078 | 0.015 ± 0.0028 | 0.021 ± 0.03 | 0.0095 ± 0.037 | 0.0005 ± 0.093 | 0.0055 ± 0.0021 | -0.0065 ± 0.0092 | 0.0075 ± 0.005 |
| CASM3C:HLA-DR | -0.006 ± 0.027 | -0.0195 ± 0.046 | -0.0105 ± 0.066 | -0.02 ± 0.0028 | -0.0005 ± 0.0078 | -0.0005 ± 0.018 | -0.026 ± 0.016 | -0.014 ± 0.014 | -0.0045 ± 0.012 | -0.004 ± 0.0085 | -0.016 ± 0.014 | -0.006 ± 0.023 | -0.0095 ± 0.00071 | 0.016 ± 0.0028 | -0.014 ± 0.064 | 0.035 ± 0.025 | 0.0045 ± 0.019 | -0.004 ± 0.0028 | 0.0165 ± 0.012 |
| CASM3C:IL-6 | -0.0315 ± 0.022 | 0.0105 ± 0.084 | -0.016 ± 0.035 | -0.016 ± 0.024 | -0.0055 ± 0.061 | -0.014 ± 0.0014 | -0.02 ± 0.0099 | -0.0005 ± 0.04 | -0.0275 ± 0.018 | -0.023 ± 0.014 | -0.0215 ± 0.015 | -0.0205 ± 0.016 | -0.001 ± 0.031 | 0.001 ± 0.041 | -0.0005 ± 0.021 | 0.0255 ± 0.036 | -0.016 ± 0.048 | -0.0155 ± 0.043 | -0.0125 ± 0.018 |
| CASM3C:LDLR | -0.0085 ± 0.018 | 0.0055 ± 0.026 | -0.05 ± 0.02 | -0.0415 ± 0.011 | -0.029 ± 0.011 | 0.0045 ± 0.005 | -0.0015 ± 0.0035 | 0.0075 ± 0.032 | -0.0095 ± 0.011 | -0.0165 ± 0.0078 | -0.0135 ± 0.011 | -0.0245 ± 0.023 | 0.0035 ± 0.044 | -0.0555 ± 0.086 | -0.0425 ± 0.044 | -0.0125 ± 0.00071 | 0.0065 ± 0.011 | 0.004 ± 0.0014 | 0.0025 ± 0.021 |
| CASM3C:M-CSF | -0.0325 ± 0.019 | -0.019 ± 0.067 | 0.045 ± 0.0099 | 0.0435 ± 0.028 | 0.0215 ± 0.013 | -0.0185 ± 0.035 | -0.0215 ± 0.0078 | -0.012 ± 0.035 | 0.022 | 0.04 ± 0.0099 | -0.027 ± 0.021 | -0.035 ± 0.021 | 0.029 ± 0.034 | 0.025 ± 0.024 | -0.0195 ± 0.022 | 0.0045 ± 0.063 | -0.0285 ± 0.029 | 0.0055 ± 0.016 | 0.002 ± 0.0014 |
| CASM3C:PAI-I | 0.001 ± 0.0014 | 0.0065 ± 0.011 | 0.0015 ± 0.011 | -0.008 ± 0.017 | 0.0015 ± 0.005 | -0.006 ± 0.0099 | -0.006 | 0.012 ± 0.0042 | 0.012 ± 0.0057 | 0.0055 ± 0.011 | -0.0015 ± 0.0021 | 0.0005 ± 0.0035 | 0.0095 ± 0.0064 | -0.008 ± 0.0028 | -0.0015 ± 0.0035 | 0.005 ± 0.0071 | -0.002 ± 0.0014 | -0.0005 ± 0.0035 | 0.009 ± 0.0099 |
| CASM3C:Proliferation | -0.01 ± 0.017 | -0.0245 ± 0.035 | 0.0505 ± 0.059 | 0.021 ± 0.052 | -0.012 ± 0.016 | -0.01 ± 0.0057 | -0.024 ± 0.0099 | -0.0305 ± 0.044 | -0.027 ± 0.0085 | 0.0415 ± 0.032 | 0.0025 ± 0.076 | -0.051 ± 0.047 | -0.0245 ± 0.069 | -0.018 ± 0.055 | 0.0175 ± 0.07 | -0.0245 ± 0.03 | 0.011 ± 0.0014 | -0.008 ± 0.016 | -0.018 ± 0.023 |
| CASM3C:SRB | -0.006 ± 0.0028 | -0.0015 ± 0.005 | -0.0005 ± 0.0064 | 0.002 | 0.0025 ± 0.00071 | -0.001 ± 0.0085 | -0.001 ± 0.0085 | -0.007 ± 0.011 | 0.0075 ± 0.011 | -0.0075 ± 0.0021 | -0.001 ± 0.0014 | -0.001 ± 0.0028 | -0.0045 ± 0.011 | 0.0025 ± 0.0035 | 0.0015 ± 0.0021 | 0.0045 ± 0.00071 | 0.0035 ± 0.005 | -0.006 ± 0.0071 | 0.0005 ± 0.0035 |
| CASM3C:Serum Amyloid A | -0.045 ± 0.0057 | -0.02 ± 0.078 | -0.014 ± 0.018 | -0.012 ± 0.048 | -0.0305 ± 0.013 | -0.013 ± 0.038 | -0.0215 ± 0.033 | -0.022 ± 0.035 | 0.0055 ± 0.028 | 0.012 ± 0.047 | -0.0435 ± 0.015 | -0.0465 ± 0.0064 | -0.0075 ± 0.081 | -0.077 ± 0.014 | -0.058 ± 0.044 | -0.0135 ± 0.049 | -0.005 ± 0.014 | 0.0105 ± 0.036 | 0.04 ± 0.03 |
